T1: mouse NTPDase8 (Mus musculus, UniProt Q8K0L2)
T1 construct: expressed in transfected cells; host or cells: COS-7
T1 sequence (Q8K0L2 1-497): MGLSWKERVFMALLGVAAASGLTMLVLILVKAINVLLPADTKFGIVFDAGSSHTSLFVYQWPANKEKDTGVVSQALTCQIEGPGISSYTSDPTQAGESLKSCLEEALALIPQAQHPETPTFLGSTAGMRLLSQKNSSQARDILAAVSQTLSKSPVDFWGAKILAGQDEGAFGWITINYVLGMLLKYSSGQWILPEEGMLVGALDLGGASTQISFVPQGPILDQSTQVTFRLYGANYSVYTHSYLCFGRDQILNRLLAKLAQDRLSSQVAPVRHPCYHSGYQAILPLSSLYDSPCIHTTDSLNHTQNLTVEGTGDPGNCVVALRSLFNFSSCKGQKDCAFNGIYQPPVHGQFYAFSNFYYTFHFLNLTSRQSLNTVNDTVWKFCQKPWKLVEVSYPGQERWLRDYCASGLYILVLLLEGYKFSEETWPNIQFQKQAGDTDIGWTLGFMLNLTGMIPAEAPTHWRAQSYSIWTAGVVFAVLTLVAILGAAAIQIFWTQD

T2: human NTPDase8 (Homo sapiens, UniProt Q5MY95, L62P)
T2 construct: expressed in transfected cells; host or cells: COS-7
T2 sequence (Q5MY95 1-495 L62P): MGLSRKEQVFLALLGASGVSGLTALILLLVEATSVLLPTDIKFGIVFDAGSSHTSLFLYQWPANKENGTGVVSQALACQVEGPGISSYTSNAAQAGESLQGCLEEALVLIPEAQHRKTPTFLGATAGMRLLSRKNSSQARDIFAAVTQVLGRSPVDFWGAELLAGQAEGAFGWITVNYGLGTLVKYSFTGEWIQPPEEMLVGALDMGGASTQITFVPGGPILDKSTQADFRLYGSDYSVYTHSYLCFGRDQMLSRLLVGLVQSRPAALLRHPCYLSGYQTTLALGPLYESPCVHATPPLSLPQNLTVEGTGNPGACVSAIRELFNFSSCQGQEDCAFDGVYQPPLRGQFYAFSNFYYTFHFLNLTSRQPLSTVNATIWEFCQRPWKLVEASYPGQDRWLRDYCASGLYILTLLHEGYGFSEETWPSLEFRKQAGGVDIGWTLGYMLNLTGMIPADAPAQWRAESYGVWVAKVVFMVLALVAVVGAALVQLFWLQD

B1: mNTPDase8: mouse nucleoside triphosphate diphosphohydrolase 8, SEQ ID NO:1, protein extract from transfected COS-7 cells (protein)
chain: T1 sequence (Q8K0L2 1-497)
modifications: PEPTIDE (1)...(497) Mouse HTPDase8
B2: mNTPDase1: mouse NTPDase1 protein extract from transfected COS cells (protein, UniProt P55772 1-510, looked up)
Ectonucleoside triphosphate …: MEDIKDSKVKRFCSKNILIILGFTSILAVIALIAVGLTQNKPLPENVKYGIVLDAGSSHTNLYIYKWPAEKENDTGVVQQLEECQVKGPGISKYAQKTDEIGAYLAECMELSTELIPTSKHHQTPVYLGATAGMRLLRMESEQSADEVLAAVSTSLKSYPFDFQGAKIITGQEEGAYGWITINYLLGRFTQEQSWLSLISDSQKQETFGALDLGGASTQITFVPQNSTIESPENSLQFRLYGEDYTVYTHSFLCYGKDQALWQKLAKDIQVSSGGVLKDPCFNPGYEKVVNVSELYGTPCTKRFEKKLPFDQFRIQGTGDYEQCHQSILELFNNSHCPYSQCAFNGVFLPPLHGSFGAFSAFYFVMDFFKKVAKNSVISQEKMTEITKNFCSKSWEETKTSYPSVKEKYLSEYCFSGAYILSLLQGYNFTDSSWEQIHFMGKIKDSNAGWTLGYMLNLTNMIPAEQPLSPPLPHSTYIGLMVLFSLLLVAVAITGLFIYSKPSYFWKEAV
modifications: COS cell extract
notes: mouse NTPDase1 protein extract from transfected COS cells

Assays:
mouse NTPDase8 [1] = biological target: T1, mouse NTPDase8; test: NTPDase activity measurement (Pi release, malachite green) on protein extracts of COS-7 cells transfected with mouse NTPDase8; assay type: biochemical; conditions: for Vmax,app / Km: substrate of NTPDase8, Woolf-Augustinsson-Hofstee plot, mean ± SEM; for Km: read-out: Km,app
Experimental: COS-7 cells were transfected in 10 cm plates using Lipofectamine™ (Invitrogen), as previously described (Kaczmarek et al, 1996, JBC, 271:33116–33122). Briefly, cells were incubated for 5 h at 37° C. in DMEM in absence of foetal bovine serum (FBS) with 6 μg of plasmid DNA and 24 μl of Lipofectamine™ reagent. The reaction was stopped by adding an equal volume of DMEM containing 20% FBS and cell were harvested 40–44 h later. For protein preparation, transfected cells were washed three times with Tris-saline buffer at 4° C., harvested by scraping in 95 mM NaCl, 0.1 mM PMSF and 45 mM Tris, pH 7.5, and washed twice by 300×g centrifugation for 10 min at 4° C. Cells were resuspended in the harvesting buffer containing 10 μg/ml aprotinin and sonicated. Nucleus and cellular debris were discarded by another centrifugation as described above and the supernatants stored at −80° C. until used. Protein concentration was estimated by the Bradford microplate assay using bovine serum albumin (BSA) as a standard of reference (Bradford, 1976, Analyt. Biochem., 72:248–254).
(§1) Enzyme activity in the protein fractions was determined as previously described (Sévigny et al, 1997, Biochimica Biophysica Acta 1334:73–88) Briefly, enzyme activity was measured at 37° C. in 0.5 ml of the following incubation medium: […] either with 100 mM Tris, pH 7.4 or with 100 mM MES, pH 6.4 or as indicated. Enzyme preparation was added to the incubation mixture and pre-incubated at 37° C. for 3 min. Reaction was started by the addition of 0.5 mM substrate (ATP, ADP, UTP, UDP or AMP) and stopped after 20 min by the addition of 0.125 ml of the malachite green reagent (Baykov and Evtushenko, 1988, Analytical Biochemistry 171:266–270). Activity on intact cells was carried out in similar conditions in 24 wells plates, also 40–44 h after transfection, with the addition of 145 mM NaCl to the incubation medium. The reaction was stopped by taking 0.2 ml of the reaction mixture to a new tube containing 50 μl of malachite reagent. The inorganic phosphate […] released from the hydrolysis of exogenous nucleotides was measured according to Baykov et al. (Baykov and Evtushenko, 1988, Analytical Biochemistry 171:266–270)
Optimum pH was determined in the presence of 5 mM CaCl2 with the following buffers: 100 mM acetate (pH 4.0–5.5), 100 mM MES (pH 5.5–7.0), 100 mM Tris (pH 7.0–9.0) or 100 mM glycine pH (9.0–11.0). In the indicated experiments CaCl2 was substituted by MgCl2. To remove traces of divalent cations 1 mM EDTA plus 1 mM EGTA was added to the medium. One unit of enzyme activity corresponds to the release of 1 μmole Pi/min at 37° C. (LeBel et al., 1980, J. Biol. Chem. 255:1227–1233). All experiments were performed in triplicate with the appropriate controls.

mouse NTPDase8 [2] = biological target: T1, mouse NTPDase8; test: HPLC separation and quantification of nucleotides hydrolysed by mouse NTPDase8; assay type: biochemical
Experimental: For HPLC analysis, activity assays were performed in 5 mM CaCl2 and 100 mM MES, pH 6.4 as described above with the following modifications. Aliquots of 20 μL were taken at different time points from the enzymatic reaction and activity stopped by the addition of an equal volume of ice-cold 1 M perchloric acid. The samples were centrifuged for 5 min at 1000×g at 4° C. Supernatants were neutralized with 1 M KOH (4° C.), centrifuged for a subsequent 5 min at 1000×g and then lipids were removed by liquid-liquid extraction with n-heptane (5:1, v/v). An aliquot of 20 μL from the lipid extracted sample was applied to a column connected to a HPLC system.
Adenine nucleotides (ATP, ADP and AMP) were separated on a 15 cm×4.6 mm, 3 μm SUPELCOSIL™ LC-18-T column (Supelco, Bellefonte, Pa., USA) with a mobile phase composed of 25 mM TBA, 5 mM EDTA, 100 mM KH2PO4/K2HPO4, pH 7.0 and 2% methanol (v/v), at a flow-rate of 1 ml/min. […] Combined adenine and uridine nucleotide samples were analyzed with the latter column with a mobile phase composed of 16.7 mM TBA, 3.3 mM EDTA, 66.7 mM KH2PO4/K2HPO4, pH 7.0. The flow rate was 0.5 ml/min for the first 20 min and 1 ml/min up to 90 min. The nucleotides were detected by UV absorption at 260 nm and identified by comparison of the retention time and UV spectrum with the appropriate standards.

human NTPDase8 = biological target: T2, human NTPDase8; test: Activity on protein extracts from human NTPDase8 transient transfected COS-7 cells; assay type: biochemical; conditions: substrate hydrolysis by human NTPDase8 protein extracts
Experimental: as §1
The activity of the protein extracts of human NTPDase8 was carried out as described previously herein and the results are shown in Table 3.

[3] = tested on: platelet aggregation in PRP; test: ADP-induced platelet aggregation in human PRP (optic density at 600 nm); assay type: cell-based; conditions: 4 uM ADP; PRP preincubated 25 seconds with 250 ug mNTPDase8 or 3 ug mNTPDase1 protein extracts
Experimental: Cell membrane preparation and platelet aggregation assays were performed as described before.
PRP prepared from human donors was tested for platelet activation in the presence of exogenous ADP and protein extracts from COS cell transfected with pcDNA3.11V5-His encoding mouse NTPDase8 (mNTPDase8) or mouse (mNTPDase1) (FIG. 6). Optic density at 600 nm was recorded over a period of 8 minutes. Before the addition of 4 uM ADP, PRP was preincubated for 25 seconds with 250 ug mNTPDase8 or 3 ug mNTPDase1 protein extracts, 250 ug untransfected COS cells or without protein extract (agonist: 4 uM ADP). Note that 4 uM ADP induced high levels of platelet aggregation in control samples.

Row | Molecule | Vmax,app (mouse NTPDase8 [1]) | Km (mouse NTPDase8 [1]) | Activity (human NTPDase8) | other results
1 | O=c1ccn([C@@H]2O[C@H](COP(=O)(O)OP(=O)(O)O)[C@@H](O)[C@H]2O)c(=O)[nH]1 [UDP] | 1.08 ± 0.06 U/mg of protein | 171 ± 15 µM | 38 ± 5 nmols Pi/min/mg | remaining concentration after 120 min (mouse NTPDase8 [2]; formed from UTP incubated with NTPDase8 extracts): 140 µM
2 | Nc1ncnc2c1ncn2[C@@H]1O[C@H](COP(=O)(O)OP(=O)(O)O)[C@@H](O)[C@H]1O [ADP] | 0.95 ± 0.08 U/mg of protein | 41 ± 6 µM | 55 ± 15 nmols Pi/min/mg | hydrolysis after 120 min (mouse NTPDase8 [2]; formed from ATP incubated with NTPDase8 extracts): completely hydrolyzed
3 | Nc1ncnc2c1ncn2[C@@H]1O[C@H](COP(=O)(O)O)[C@@H](O)[C@H]1O [AMP] |  |  | 2 ± 0.6 nmols Pi/min/mg | hydrolysis by NTPDase8 (mouse NTPDase8 [1]; in the presence of Ca2+): did not hydrolyze
4 | Nc1ncnc2c1ncn2[C@@H]1O[C@H](COP(=O)(O)OP(=O)(O)OP(=O)(O)O)[C@@H](O)[C@H]1O [ATP] | 0.82 ± 0.02 U/mg of protein | 13 ± 6 µM | 264 ± 7 nmols Pi/min/mg | 
5 | O=c1ccn([C@@H]2O[C@H](COP(=O)(O)OP(=O)(O)OP(=O)(O)O)[C@@H](O)[C@H]2O)c(=O)[nH]1 [UTP] | 1.13 ± 0.02 U/mg of protein | 47 ± 1 µM | 271 ± 35 nmols Pi/min/mg | 
6 | B1 |  |  |  | activity in absence of divalent cations (mouse NTPDase8 [1]; 1 mM EDTA and 1 mM EGTA, any of the substrates tested): no activity could be detected; pH of optimal activity (mouse NTPDase8 [1]; ADPase activity, evaluated from pH 4.0 to 11.0): ~6.4; pH range in which highly active (mouse NTPDase8 [1]; ATPase and ADPase activity, evaluated from pH 4.0 to 11.0): 5.5–7.0; ratio of hydrolysis ATP/ADP (mouse NTPDase8 [1]; in the presence of Ca2+): 1.6±0.3; ratio of hydrolysis UTP/UDP (mouse NTPDase8 [1]; in the presence of Ca2+): 2.1±0.3; inhibition of platelet aggregation [3]: 53%
7 | B2 |  |  |  | inhibition of platelet aggregation [3]: 100%

Source: patent US7129074B2, “Nucleoside triphosphate diphosphohydrolase (NTPDase 8) and uses thereof” (Université Laval, priority 2002, dated 2006)
